Results from patent US12575571B2, “1-amino-1-cyclopropanecarboxylic acid and methyl jasmonate mixtures and uses thereof” (Valent BioSciences LLC, priority 2022, dated 2026).

What was measured:
[1] = system: unripened apples, Imperial Gala variety; experiment: Apple coloration in Imperial Gala variety (percent red pixel area after foliar spray); format: in vivo; settings: 34 hours post spray; for Fold Change From control: vs 0.05% Regulaid control
Protocol: (§1) 10 sets of unripened apples, Imperial Gala variety, harvested three weeks before the normal harvest date, were each foliar sprayed with either 1) 0.05% Regulaid® as a control, 2) 50 ppm methyl jasmonate, 3) 300 ppm methyl jasmonate, 4) 50 ppm ACC, 5) 300 ppm ACC or 6) a mixture of 50 ppm methyl jasmonate and 50 ppm ACC or 7) a mixture of 300 ppm methyl jasmonate and 300 ppm ACC. 34 hours post spray application percent red pixel area (shaded) was measured. Percent red pixel area is an indication of the coloration of the apple fruit.
(§2) To determine if the mixture provided unexpected results, the observed combined efficacy (“OCE”) was divided by the expected combined efficacy (“ECE”) wherein the ECE is calculated by the Abbott method: ECE=A+B−(AB/100), wherein ECE is the expected combined efficacy and in which A and B are the fold change from control given by the single active ingredients. If the ratio between the OCE of the mixture and the ECE of the mixture is greater than 1, then greater than expected interactions are present in the mixture. (Gisi, Synergistic Interaction of Fungicides in Mixtures, The American Phytopathological Society, 86:11, 1273-1279,1996).

[2] = system: unripened apples, Ultima Gala variety; experiment: Apple coloration in Ultima Gala variety (percent red pixel area after foliar spray); format: in vivo; settings: 34 hours post spray; for Fold Change From control: vs 0.05% Regulaid control
Protocol: as §2
as §1, with “Ultima” for “Imperial”

[3] = 50 ppm (each active) foliar spray
[4] = 300 ppm (each active) foliar spray

## CC/C=C\CC1C(=O)CCC1CC(=O)OC (centres unmarked) [methyl jasmonate]
[1]; [3]
  Average % Red Pixel Area: 63.31%
[1]; 50 ppm (each active)
  Fold Change From control: 8.31
[1]; [4]
  Average % Red Pixel Area: 47.60%
[1]; 300 ppm (each active)
  Fold Change From control: 6.00
[2]; [3]
  Average % Red Pixel Area: 36.64%
[2]; 50 ppm (each active)
  Fold Change From control: 2.30
[2]; [4]
  Average % Red Pixel Area: 46.37%
[2]; 300 ppm (each active)
  Fold Change From control: 3.17
